The values that follow come from article PMC10567728, “Targeted imaging of uPAR expression in vivo with cyclic AE105 variants” (Scientific Reports, 2023).

By koff is commonly meant the first-order rate constant of dissociation. Low readings indicate a long-lived complex, high ones a short-lived complex. By Kd is commonly meant the concentration at which binding is half-saturated. As a reminder, the kon is a measure of how fast the partners come together. As a reminder, the IC50 is the concentration that gives 50% inhibition. Higher therefore signals lower potency.

The structures appear in SMILES notation. “And” between values parts separate entries of the source, which are not always exact repeats. Equal values may be shown once. Positions of bridges follow the written chain, without caps; N, C: chain ends. Non-standard residues stand in square brackets, D forms with d. Residues, ends and D or L forms follow the SMILES beside them. *: point of attachment. DOTA = O=C(O)CN1CCN(CC(=O)O)CCN(CC(=O)*)CCN(CC(=O)O)CC1; Cha = N[C@@H](CC1CCCCC1)C(=O)O

Data set [1] concerns the target T1, uPAR (Homo sapiens, UniProt Q03405).
T1 construct: Recombinant human uPAR^1–283 was expressed; made in house; host or cells: Drosophila melanogaster S2 cells
Description: SPR real-time binding kinetics, peptides in solution and immobilised uPAR. The following applies: for koff / Kd / kon: single cycle SPR, immobilised uPAR, 20 °C; for Kd: 1:1 model; for kon: read-out: kon. On the procedure:
The real-time binding kinetics of uPAR•peptide interactions were measured with SPR using a Biacore T200™(Cytiva); essentially as described in[56],[77]. In brief, uPAR was covalently immobilised on a CM5 sensor chip via amine coupling resulting in a surface density of 1157–1581 RU (~ 33–44 fmol/mm^2). The binding kinetics for the peptides to immobilised uPAR were measured using a single cycle protocol. In this setup, peptides were injected as five serial two-fold dilutions with a contact time of 200 s. After the last analyte injection, the dissociation time was set to 1000 s. The sensor chip was regenerated with two consecutive injections of 0.1 M acetic acid in 0.5 M NaCl. All experiments were conducted at 20 °C with a flow rate of 50 µL/min in 10 mM HEPES, 150 mM NaCl, 3 mM EDTA, and 0.05% (v/v) surfactant P-20 at pH 7.4. The kinetic rate constants (kon and koff) were determined by non-linear regression fitting of the curves to the simple bimolecular interaction model (BiacoreT200 Evaluation™ 3.0 software).

Another data set deals with T2, uPAR•uPA interaction (Homo sapiens, UniProt Q03405).
T2 construct: Recombinant human uPAR^1–283 was expressed; made in house; host or cells: Drosophila melanogaster S2 cells
As to the kind of experiment: SPR competition assay of the uPAR•uPA interaction. The class given is binding. The following applies: for IC50: competition of uPAR•uPA interaction, 2 nM uPAR, 20 °C, n = 3. On the procedure: The IC50-values of antagonistic peptides on the uPAR•uPA interaction were determined with SPR using a Biacore T200™ or Biacore 3000™ instruments (Cytiva) essentially as described[4],[56],[77]. In brief, we immobilized high levels of pro-uPA^S356A (0.1 pmol pro-uPA/mm^2) on a CM5 sensor chip via amine coupling. The experiments were conducted by injecting 2 nM uPAR in presence of a threefold dilution series of a given antagonistic peptide for 300 s with a flow rate of 50 µL/min at 20 °C. The high immobilization levels result in binding conditions that are entirely controlled by mass transport limitations (MTL). Accordingly, the observed association rates (vobs) are directly proportional to the concentrations of binding-active uPAR in solution. To determine the IC50, we also measured a standard curve of uPAR binding (a twofold dilution series of 0.06 to 2 nM uPAR, linear due to MTL). The running buffer was 10 mM HEPES, 150 mM NaCl, 3 mM EDTA, and 0.05% (v/v) surfactant P-20 at pH 7.4, and the regeneration buffer was 0.1 M acetic acid in 0.5 M NaCl.

Data set [2] has as its target T1, uPAR. As to the kind of experiment: Nano-DSF thermal stability of uPAR•peptide complexes. The following applies: for Tm (apparent melting temperature of uPAR•peptide complex): 15 µM uPAR, 30 µM peptide, PBS pH 7.4, n = 3; for increase in apparent Tm: DOTA-conjugated peptides with spacer, compared to (4b); for decrease in apparent Tm on introduction of spacer: (4) vs (1), (6) vs (3). On the procedure: The thermal stability of the uPAR•peptide complexes was analyzed with Nano-DSF using a Prometheus NT.48™ (Nanotemper). uPAR (15 µM) was mixed with twofold excess of peptide (30 µM) in PBS pH 7.4 and incubated for 15 min at RT to ensure complex formation. Samples containing either 15 µM uPAR or 30 µM of each peptide were included as controls. The samples were loaded into standard capillaries and in triplicates. To unfold the proteins, the samples were exposed to an increasing temperature gradient from 20 to 95 °C with a ramping rate of 1 °C/min. The excitation power was set to 50% (Ex.280 nm) and the fluorescence emission collected at 330 nm and 350 nm. The melting temperatures of the complexes were determined in the PR.ThermControl software (Nanotemper) from the first derivative of the fluorescence ratio (350 nm/330 nm).
For orientation: In DSF a fluorescence change marks the thermal transition of the protein.

T1 sequence (Q03405 23-305): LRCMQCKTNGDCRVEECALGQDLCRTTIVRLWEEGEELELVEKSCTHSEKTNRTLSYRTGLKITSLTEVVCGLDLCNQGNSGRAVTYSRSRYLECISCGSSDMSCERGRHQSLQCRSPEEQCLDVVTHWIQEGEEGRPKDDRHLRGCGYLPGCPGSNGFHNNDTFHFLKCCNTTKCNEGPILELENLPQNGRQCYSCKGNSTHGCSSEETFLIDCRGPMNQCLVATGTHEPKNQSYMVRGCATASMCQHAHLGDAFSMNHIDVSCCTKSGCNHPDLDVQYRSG
T2 sequence (Q03405 23-305): as above

With `CC(C)C[C@H](NC(=O)[C@H](Cc1ccc(O)cc1)NC(=O)[C@@H](CCCNC(=N)N)NC(=O)[C@@H](CO)NC(=O)[C@H](Cc1ccccc1)NC(=O)[C@H](CC1CCCCC1)NC(=O)[C@H](CC(=O)O)NC(=O)CNC(=O)CNC(=O)[C@@H](CO)NC(=O)CNC(=O)[C@H](CCC(=O)O)NC(=O)[C@H](CCC(=O)O)NC(=O)CN1CCN(CC(=O)O)CCN(CC(=O)O)CCN(CC(=O)O)CC1)C(=O)N[C@@H](Cc1c[nH]c2ccccc12)C(=O)N[C@@H](CO)C(=O)O` [4b] ({DOTA}-EEG[dS]GGD[Cha]F[dS][dR]YLWS-OH), at uPAR [1], the koff was 0.00717 ± 1e-05 s⁻¹; the affinity, expressed as Kd, was 33.6 nM; the on-rate constant (kon) turned out to be 213000 ± 400 M⁻¹ s⁻¹. Moreover, on uPAR•uPA interaction, the IC50 is 32.2 ± 0.9 nM. The “Tm (apparent melting temperature of uPAR•peptide complex)” value in the data set with uPAR [2] stood at 55.6 ± 0.03 °C.
Turning to `CC(C)C[C@@H]1NC(=O)[C@H](Cc2ccc(O)cc2)NC(=O)[C@H](NC(=O)[C@@H](CO)NC(=O)[C@H](Cc2ccccc2)NC(=O)[C@H](CC2CCCCC2)NC(=O)[C@H](CC(=O)O)NC(=O)CNC(=O)CNC(=O)[C@@H](CO)NC(=O)CNC(=O)[C@H](CCC(=O)O)NC(=O)[C@H](CCC(=O)O)NC(=O)CN2CCN(CC(=O)O)CCN(CC(=O)O)CCN(CC(=O)O)CC2)CSSC[C@@H](C(=O)O)NC(=O)[C@H](Cc2c[nH]c3ccccc23)NC1=O` [6b] ({DOTA}-EEG[dS]GGD[Cha]F[dS][dC]YLWC-OH; disulfide 11-15), on uPAR [1], the koff turned out to be 0.00977 ± 1e-05 s⁻¹; the affinity, expressed as Kd, was 20.3 nM; the kon stood at 481000 ± 1000 M⁻¹ s⁻¹. The IC50 on uPAR•uPA interaction amounted to 15.8 ± 0.4 nM. Moreover, in the data set with uPAR [2], the “Tm (apparent melting temperature of uPAR•peptide complex)” value stood at 61.3 ± 0.4 °C and the “increase in apparent Tm” value was 6–14 °C.
As to `CC(C)C[C@H](NC(=O)[C@H](Cc1ccc(O)cc1)NC(=O)[C@@H](CCCNC(=N)N)NC(=O)[C@@H](CO)NC(=O)[C@H](Cc1ccccc1)NC(=O)[C@H](CC1CCCCC1)NC(=O)[C@H](CC(=O)O)NC(=O)CNC(=O)CNC(=O)[C@@H](CO)NC(=O)CNC(=O)[C@H](CCC(=O)O)NC(=O)[C@H](CCC(=O)O)NC(=O)CN1CCN(CC(=O)O)CCN(CC(=O)O)CCN(CC(=O)O)CC1)C(=O)N[C@@H](Cc1c[nH]c2ccccc12)C(=O)N[C@@H](CO)C(N)=O` [10b] ({DOTA}-EEG[dS]GGD[Cha]F[dS][dR]YLWS-NH2), at uPAR [1], the koff stood at 0.001367 ± 1e-06 s⁻¹, binding was characterised by a dissociation constant (Kd) of 3.18 nM and the kon is 429700 ± 400 M⁻¹ s⁻¹. This molecule registered an IC50 at uPAR•uPA interaction of 4.8 ± 0.2 nM. Further, in the data set with uPAR [2], the “Tm (apparent melting temperature of uPAR•peptide complex)” value was found to be 66.2 ± 0.3 °C and the “increase in apparent Tm” value is 6–14 °C.
For the molecule `CC(C)C[C@H](NC(=O)[C@H](Cc1ccc(O)cc1)NC(=O)[C@@H](CCCNC(=N)N)NC(=O)[C@@H](CO)NC(=O)[C@H](Cc1ccccc1)NC(=O)[C@H](CC1CCCCC1)NC(=O)[C@H](CC(=O)O)NC(=O)CNC(=O)CNC(=O)[C@@H](CO)NC(=O)CNC(=O)[C@H](CCC(=O)O)NC(=O)[C@@H](N)CCC(=O)O)C(=O)N[C@@H](Cc1c[nH]c2ccccc12)C(=O)N[C@@H](CO)C(=O)O` [compound 4] (H-EEG[dS]GGD[Cha]F[dS][dR]YLWS-OH; N-terminus assumed), on uPAR [1], the koff is 0.00558 ± 1e-05 s⁻¹ and the kon was 280000 ± 1000 M⁻¹ s⁻¹. Further, at uPAR•uPA interaction (compared to AE105 (1)), the “fold increase in the IC50-value” turned out to be 2.7 fold. For the same molecule, on uPAR [2], the “Tm (apparent melting temperature of uPAR•peptide complex)” value was 55.2 °C and 55.2 ± 0.2 °C; the “decrease in apparent Tm on introduction of spacer” value amounted to 10 °C.
Consider `CC(C)C[C@@H]1NC(=O)[C@H](Cc2ccc(O)cc2)NC(=O)[C@H](NC(=O)[C@@H](CO)NC(=O)[C@H](Cc2ccccc2)NC(=O)[C@H](CC2CCCCC2)NC(=O)[C@H](CC(=O)O)NC(=O)CNC(=O)CNC(=O)[C@@H](CO)NC(=O)CNC(=O)[C@H](CCC(=O)O)NC(=O)[C@@H](N)CCC(=O)O)CSSC[C@@H](C(=O)O)NC(=O)[C@H](Cc2c[nH]c3ccccc23)NC1=O` [compound 6] (H-EEG[dS]GGD[Cha]F[dS][dC]YLWC-OH; disulfide 11-15; N-terminus assumed), for which, at uPAR [1], the “association rate constant (kon) compared to (4)” value is listed as “improved ~ twofold”, the “dissociation rate constant (koff) compared to (4)” value is recorded as “~ twofold impairment”, the koff is 0.01033 ± 3e-05 s⁻¹ and the kon was found to be 611000 ± 3000 M⁻¹ s⁻¹. The increase in potency at uPAR•uPA interaction (compared to (4)) is on record as 1.4 fold. This molecule displayed an increase in potency at uPAR•uPA interaction (compared to (5)) of 11 fold. For the same molecule, on uPAR [2], the “Tm (apparent melting temperature of uPAR•peptide complex)” value is 60.6 °C and 60.6 ± 0.7 °C; the “decrease in apparent Tm on introduction of spacer” value came out at 10 °C. For the same molecule, the “increase in thermal stability (apparent Tm)” value on uPAR [2] (disulfide-bonded peptide compared to linear peptide (4)) turned out to be 5 °C.
On to `CC(C)C[C@H](NC(=O)[C@H](Cc1ccc(O)cc1)NC(=O)[C@@H](CCCNC(=N)N)NC(=O)[C@@H](CO)NC(=O)[C@H](Cc1ccccc1)NC(=O)[C@H](CC1CCCCC1)NC(=O)[C@H](CC(=O)O)NC(=O)CNC(=O)CNC(=O)[C@@H](CO)NC(=O)CNC(=O)[C@H](CCC(=O)O)NC(=O)[C@@H](N)CCC(=O)O)C(=O)N[C@@H](Cc1c[nH]c2ccccc12)C(=O)N[C@@H](CO)C(N)=O` [compound 10] (H-EEG[dS]GGD[Cha]F[dS][dR]YLWS-NH2; N-terminus assumed), for which, on uPAR [1], the off-rate constant (koff) came to 0.001497 ± 2e-06 s⁻¹ and the kon came out at 595000 ± 1000 M⁻¹ s⁻¹. The “fold increase in potency on C-terminal amidation” value on uPAR•uPA interaction ((8) vs (1) and (10) vs (4)) was 5.6 fold. In addition, the “Tm (apparent melting temperature of uPAR•peptide complex)” value on uPAR [2] was ~ 65 °C.
